{"source": "patent US11168081B2", "about": "“Alkaloid derivative having angiogenesis inhibitory effect, and pharmaceutical composition containing same” (SEOUL NATIONAL UNIVERSITY R&DB FOUNDATION, priority 2017, dated 2021)", "key": {"Plasma stability": {"assay": "Plasma stability", "type": "in vitro ADME, human", "method": "For measuring plasma stability, the test compound (10 μM) was incubated with human plasma at 37° C. After 30 minutes, the reaction was quenched by adding acetonitrile (containing chlopropamide as internal standard). The samples were vortexed for 5 minutes and centrifuged at 14,000 rpm for 5 minutes at 4° C. Then, the supernatant was analyzed using a LC-MS/MS (Kinetex C18 column, Phenomenex, USA)."}, "[1]": {"system": "VEGFR2-mediated PI3K/AKT/eNOS and SRC/FAK signaling pathway", "assay": "Biomarker analysis (immunoblot) in VEGF-stimulated HUVECs", "type": "cell-based, human", "settings": "FIG. 2", "method": "The harvested cells were lysed by 2× sample loading buffer (250 mM Tris-HCl, pH 6.8; 4% SDS; 10% glycerol; 0.006% bromophenol blue; 2% β-mercaptoethanol; 50 mM sodium fluoride; and 5 mM sodium orthovanadate). The protein concentration was measured, and equal amounts of protein samples were subjected to 6-15% SDS-PAGE. The separated proteins were transferred to PVDF membranes (Millipore, Bedford, Mass.), which were then incubated with primary antibodies diluted in 2.5% BSA in TBST (1:500-1:1000) overnight at 4° C. The membranes were then washed three times with TBST and incubated with the corresponding secondary antibodies. Protein bands were detected with an enhanced chemiluminescence detection kit (Intron, Daejeon, Korea) and an LAS-4000 Imager (Fuji Film Corp., Tokyo, Japan).\nThe phosphorylation of VEGFR2 (Tyr1175) affects the activation of PI3K signaling, which leads to an increase in vascular permeability. In the VEGF signaling pathway, SRC kinases are downstream of VEGFR2 and regulate vascular permeability and angiogenesis. The activation of FAK is also an important contributor markedly involved in endothelial cell migration, proliferation and adherends junction integrity."}, "[2]": {"assay": "Aqueous solubility (pH-metric CheqSol)", "type": "physicochemical", "settings": "0.15 M KCl, 25° C.", "method": "The aqueous solubility was measured by the pH-metric CheqSol technique (Sirius Analytical Instruments Ltd.). Experiments was performed in 0.15 M KCl solution under a nitrogen atmosphere, at 25° C., using standardized 0.5 M HCl and 0.5 M KOH solutions."}, "HUVECs [3]": {"system": "HUVECs", "assay": "In vitro tube formation assay", "type": "cell-based, human", "method": "Matrigel (70 μl/well) was coated onto a 96-well plate and polymerized for 30 minutes at 37° C. under a 5% CO2 atmosphere. HUVECs (1.5×10^4 cells/well) and various concentrations of the compound were seeded onto each well of the Matrigel-coated 96-well plate. The cells were then incubated for 8 hours at 37° C. under a 5% CO2 atmosphere. The formation of endothelial cell tubular structures was visualized under an inverted microscope and photographed (Olympus Optical Co. Ltd., Tokyo, Japan). The inhibition rate of tube formation was determined using the following equation. tube formation inhibition rate (%)=[1−(average tube numbersample−average tube numberVEGF(−))/(average tube numberVEGF(+)−average tube numberVEGF(−))]×100 [Equation 1]\nThe IC50 value was calculated using nonlinear regression analysis using TableCurve 2D v5.01 software (Systat Software Inc., Richmond, Calif., USA).\n(§1) The same experiment was carried out for sunitinib as a positive control.\nThe endothelial cell tubular structure formation assay was performed in the same manner as in the Experimental Example 1."}, "[4]": {"system": "Madin-Darby canine kidney (MDCK) cell line", "assay": "MDCK permeability", "type": "in vitro ADME", "settings": "in words", "method": "(§2) The permeability was examined using Madin-Darby canine kidney (MDCK) cell line. The MDCK cell line was acquired from the American Type Culture Collection (Manassas, Va.). The cells were seeded in 12 well plates and allowed to grow for 7 days at 37° C. under a 5% CO2 atmosphere. The MDCKI monolayers were equilibrated for 30 minutes in transport buffer (10 mM glucose, 4 mM sodium bicarbonate, HBSS with 1 mM HEPES, pH 7.4) at 37° C. under a 5% CO2 atmosphere prior to the experiment. The permeability of the test compound was examined at 10 μM (with a final DMSO percentage of 1%) in the apical to basolateral (A-to-B) direction. The concentration was analyzed by LC-MS/MS. The apparent permeability (Papp, A-B) was calculated using the following equation 2.\n(§3) wherein, dQ/dt is the rate of compound appearance in the receiver compartment (Q is the quantity of compound), C0 is the concentration in the donor compartment, and A is the surface area of the insert."}, "MDCK permeability": {"assay": "MDCK permeability", "type": "in vitro ADME, canine", "settings": "dog, MDCK, pH 7.4; 10 μM, apical to basolateral", "method": "as §2, §3"}, "Metabolic stability": {"assay": "Metabolic stability", "type": "in vitro ADME, human", "method": "The test compound (1 μM) was incubated with human liver microsomes (HLM, 0.5 mg protein/ml) for 5 minutes at 37° C. in 100 mM potassium phosphate buffer (pH 7.4). The reaction was initiated by adding NADPH solution and incubated for 30 minutes. To terminate the reaction, acetonitrile (containing chlopropamide as internal standard) was added and centrifuged at 14,000 rpm for 5 minutes at 4° C. Then, the supernatant was analyzed using a LC-MS/MS (Kinetex C18 column, Phenomenex, USA)."}, "[5]": {"system": "Transgenic zebrafish (flk:EGFP) embryos", "assay": "Animal model angiogenesis inhibition assay (diabetic retinopathy)", "type": "in vivo", "settings": "zebrafish larvae", "method": "Transgenic zebrafish (flk:EGFP) embryos were provided by the Korea Zebrafish Oraganogenesis Muatant Bank (ZOMB, Daegu, Korea). The zebrafish embryos (3 dpf) were placed in a 12-well plate with 130 mM glucose embryonic H2O and various concentrations of the test compound. At 6 dpf, zebrafish larvae were fixed by 4% paraformaldehyde and stored overnight at 4° C. Next, the larvae were washed with distilled H2O, incubated with 10× trypsin (2.5%) for 90 minutes at 37° C. under a 5% CO2 atmosphere, and washed with distilled H2O. Then, the isolated lenses were isolated from the zebrafish larvae. Optic disc (OD) branches were visualized and photographed using a fluorescence microscope (Axiovert 200M, Carl Zeiss, Del.). The diameters of the larvae vessels were measured by ImageJ software."}, "HUVECs [6]": {"system": "HUVECs", "assay": "Scratch wound migration assay", "type": "cell-based, human", "settings": "24 hours, concentration-dependent, FIG. 1", "method": "The scratch wound migration assay was performed as follows.\nHUVECs were allowed to grow at 90% confluence in 12-well plates pre-coated with 0.2% gelatin and were then incubated for 24 hours. After the cells were attached, they were wounded by scratching with a 0.2 mL pipette tip. The plates were then washed with serum-free medium. Fresh medium was replaced with 2% FBS/EBM-2 medium containing various concentrations of the test compound. The cells were incubated for 24 hours, and images were recorded using an inverted phase-contrast light microscope (Olympus Optical Co. Ltd., Tokyo, Japan)."}, "HUVECs [7]": {"system": "HUVECs", "assay": "HUVEC cell growth assay (MTT)", "type": "cell-based, human", "settings": "Homo sapiens, HUVEC; MTT, 24 hours, in the presence of VEGF (50 ng/mL)", "method": "Human umbilical vascular endothelial cells (HUVECs) were obtained from the ATCC (Rockville, Md.) and cultured in EGM-2 (Lonza, Walkersville, Md.) supplemented with 10% FBS at 37° C. under a 5% CO2 atmosphere.\nCell growth was assessed by MTT assay. HUVECs (8×10^3 cells/well) were seeded onto a 96-well plate with EGM-2 medium supplemented with 10% FBS for 24 hours. The next day, the culture medium was removed, and the cells were then incubated with serum-free medium for 12 hours. Following serum starvation, the cells were cultured in fresh 2% FBS/EBM-2 medium containing various concentrations of the test compound for 24 hours in the presence of VEGF (50 ng/mL). After the incubation, an MTT solution was added, and the plate was incubated for additional 4 hours. The formazan product was dissolved in DMSO, and the absorbance was detected at 570 nm using a VersaMax ELISA microplate reader (Molecular Devices, Sunnyvale, Calif.).\nas §1"}, "pKa": {"assay": "pKa", "type": "physicochemical"}}}
{"molecule": "CCc1ccc2nc(C(c3ccc(OC)c(OC)c3)n3cc(CCN4CCCCC4)nn3)sc2c1", "note": "(stereo not drawn) [Compound I-7, 2-((3,4-dimethoxyphenyl)(4-(2-(piperidin-1-yl)ethyl)-1H-1,2,3-triazol-1-yl)methyl)-6-ethylbenzo[d]thiazole]", "values": [{"measurement": "plasma stability", "setting": "Plasma stability; 10 μM, human plasma, 37° C., remaining after 30 minutes", "value": 95, "unit": "%"}, {"measurement": "plasma stability", "setting": "Plasma stability; in words", "value": "high"}, {"measurement": "activation of SRC (p-SRC)/FAK (p-FAK)", "setting": "[1]; VEGF-stimulated HUVECs", "value": "inhibited"}, {"measurement": "levels of VEGFR2 (p-VEGFR2) activated by VEGF", "setting": "[1]; VEGF-stimulated HUVECs", "value": "suppressed"}, {"measurement": "activation of PI3K (p-PI3K), AKT (p-AKT) and eNOS (p-eNOS)", "setting": "[1]; pretreatment 30 minutes, VEGF (50 ng/mL) 20 minutes", "value": "significantly suppressed"}, {"measurement": "Aqueous Solubility", "setting": "[2]", "value": 0.024, "unit": "mM"}, {"measurement": "enhancement of tube formation capacity by VEGF", "setting": "HUVECs [3]; HUVECs, concentration-dependent, FIG. 1", "value": "inhibited"}, {"measurement": "IC50", "setting": "HUVECs [3]; Homo sapiens, HUVEC, HUVECs on Matrigel, 8 hours, VEGF-induced tube formation", "value": 631, "unit": "nM"}, {"measurement": "Selectivity Index (SI)", "setting": "HUVECs [3]; ratio of the IC50 for HUVEC cell growth to the IC50 for tube formation", "value": 75.3}, {"measurement": "MDCK cell permeability", "setting": "[4]", "value": "high"}, {"measurement": "Papp A→B at 10 μM", "setting": "MDCK permeability", "value": 11, "unit": "×10⁻⁶ cm/s"}, {"measurement": "Metabolic Stability", "setting": "Metabolic stability; 1 μM, human liver microsomes 0.5 mg protein/ml, NADPH, 30 minutes", "value": 31, "unit": "%"}, {"measurement": "microsomal stability", "setting": "Metabolic stability; in words, human liver microsomes", "value": "good"}, {"measurement": "increase in hyaloid vessel diameters induced by HG", "setting": "[5]; 130 mM glucose, 3 to 6 dpf, concentration-dependent, FIG. 3", "value": "suppressed"}, {"measurement": "hyaloid vessel diameters in the optic disc area", "setting": "[5]; high glucose, 2.5 μM", "value": "markedly reduced"}, {"measurement": "enhancement of endothelial cell migration by VEGF", "setting": "HUVECs [6]", "value": "inhibited"}, {"measurement": "IC50", "setting": "HUVECs [7]", "value": 47.5, "unit": "µM"}, {"measurement": "pKa", "setting": "pKa", "value": 9.24}]}
